Legend:
Experiment in all cases: relative viability (nuclei count vs DMSO), 5 days (fraction); higher = more cells survive
[1] = compound: C=CC(=O)Nc1cc(-n2c(=O)ccc3cnc4ccc(-c5ccc(NS(C)(=O)=O)cc5)cc4c32)ccc1C [BMX-IN-1] + Nc1nc2[nH]cc(CCc3ccc(C(=O)N[C@@H](CCC(=O)O)C(=O)O)cc3)c2c(=O)[nH]1 [Pemetrexed] (partner 0.2 µM)
Outline: (§1)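 Relative viability divides the nuclei count in treated wells by that in vehicle wells. Lung cancer cell lines were seeded in 1536-well plates, dosed by pin tool the next day, and fixed and stained after 5 days in one step with final 0.05% Triton X-100, 1% formaldehyde and 1 ug/ml Hoechst. Dosing was a single drug or a fixed anchor-drug dose plus five library-drug doses (not always all listed) in √10 steps, and values are medians of duplicate plates imaged at 4×.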

[2] = compound: C=CCc1cccc(/C=N/NC(=O)CN2CCN(Cc3ccccc3)CC2)c1O [PAC-1] + C[C@]1(O)C[C@@H](c2nc(-c3ccc4ccc(-c5ccccc5)nc4c3)c3c(N)nccn32)C1 [Linsitinib] (partner 1 µM)
Outline: as §1

[3] = compound: C=CCc1cccc(/C=N/NC(=O)CN2CCN(Cc3ccccc3)CC2)c1O [PAC-1] + Nc1nc2[nH]cc(CCc3ccc(C(=O)N[C@@H](CCC(=O)O)C(=O)O)cc3)c2c(=O)[nH]1 [Pemetrexed] (partner 0.2 µM)
Outline: as §1

[4] = compound: C=CCc1cccc(/C=N/NC(=O)CN2CCN(Cc3ccccc3)CC2)c1O [PAC-1] + N=C(N)NC(=N)NCCc1ccccc1 [Phenformin] (partner 250 µM)
Outline: as §1

[5] = compound: C=CC(=O)Nc1cc(-n2c(=O)ccc3cnc4ccc(-c5ccc(NS(C)(=O)=O)cc5)cc4c32)ccc1C [BMX-IN-1] + O=C(c1cc(Cc2n[nH]c(=O)c3ccccc23)ccc1F)N1CCN(C(=O)C2CC2)CC1 [Olaparib] (partner 8 µM)
Outline: as §1

With SK-MES-1 the relative viability ([1]; first compound 0.02 µM) was 1.11, the relative viability ([1]; first compound 0.2 µM) was 1.11 and the relative viability ([1]; first compound 0.6325 µM) was 1.03. For the same cell line, the relative viability ([1]; first compound 2 µM) was 0.859, the relative viability ([2]; first compound 0.02 µM) was 1.04 and the relative viability ([2]; first compound 0.06325 µM) was 1.03. It also gave a relative viability ([2]; first compound 0.2 µM) of 1.04, a relative viability ([2]; first compound 2 µM) of 1.03 and a relative viability ([3]; first compound 0.02 µM) of 0.939. It also gave a relative viability ([3]; first compound 0.06325 µM) of 1.02, a relative viability ([3]; first compound 0.2 µM) of 0.889 and a relative viability ([3]; first compound 2 µM) of 0.971. It also gave a relative viability ([4]; first compound 0.02 µM) of 0.638, a relative viability ([4]; first compound 0.06325 µM) of 0.661 and a relative viability ([4]; first compound 0.2 µM) of 0.381. For the same cell line, the relative viability ([4]; first compound 2 µM) was 0.645, the relative viability ([5]; first compound 0.02 µM) was 0.754 and the relative viability ([5]; first compound 0.2 µM) was 0.811. For the same cell line, the relative viability ([5]; first compound 0.6325 µM) was 0.961 and the relative viability ([5]; first compound 2 µM) was 0.625.
